Reference: US20080038838A1, “Dioxin-Binding Material and Method of Detecting or Quantifying Dioxin” (Towa Kagaku Co., Ltd., priority 2003, published 2008)
Several values for one entry are separate records, joined by “and”; a condition that tells them apart may be missing. Identical values can stand only once. Entries after “also recorded” stand apart in the source; their conditions may differ. Square brackets hold non-standard residues; d marks the D form. Ends that are not written are not given here. Cha = N[C@@H](CC1CCCCC1)C(=O)O; Phg = N[C@H](C(=O)O)c1ccccc1; Nva = CCC[C@H](N)C(=O)O

Experiments:
[1] = fluorescent staining of peptide beads with NBD-labeled dichlorophenol; format: binding; details: 30% 1,4-dioxane solvent (FIG. 10)
Method: About 2.5 million peptide beads were used for screening, the number being equal to the number of combinations of all the sequences of peptides comprising 5 amino acid residues. The primary screening was conducted in a screening solvent (a 10 mM phosphate buffer containing 20% 1,4-dioxane (pH: 8)) containing 4 nM NBD-labeled dichlorophenol. 20 ml of the buffer solution was first mixed with about 50 mg of the peptide beads, and the mixture was subsequently incubated overnight, with mild shaking, in a petri dish at room temperature. A fraction of fluorescently stained peptide beads observed by a fluorescent microscope was collected with a micropipette. These peptide beads were transferred into a micro test tube containing 50 or 100% 1,4-dioxane, and were then incubated overnight at room temperature, i.e., washing with 50 or 100% dioxane overnight at room temperature. Peptide beads which were unable to be washed, on which the NBD-labeled dichlorophenol was unspecifically adsorbed, were excluded. Peptide beads that could be washed were re-stained with 1 nM NBD-labeled dichlorophenol. In order to measure the fluorescence intensity, fluorescent microscope images of the peptide beads were recorded with a digital camera (FIG. 4).
(§1) 1 ml of a screening solvent containing 4 nM NBD-labeled dichlorophenol and 0-100 nM of a substance to be detected was prepared in a glass vial, and then three dioxin-binding peptide beads were put into the screening solvent. The resulting mixture was incubated, with mild shaking, overnight at room temperature, and then fluorescent microscope images thereof were recorded. The average fluorescence intensity of each bead was calculated from the recorded images. Calculation of the average fluorescence intensity was performed with an image analysis/measurement software, “Image-Pro Plus” (Planetron, Inc.). When competitive binding of the dichlorophenol with a dioxin occurs, the fluorescence intensity of each bead decreases depending on the concentration of the dioxin. Such a method of measuring the dioxin concentration utilizing the quenching phenomenon of the beads was termed “the method of competitive dioxin binding on bead”.
A library of twenty-one kinds of single amino acid-substituted peptides shown in FIG. 8 was constructed in order to evaluate the importance of each amino acid of the obtained oligopeptides, and to optimize the sequences. […]
(§2) Tests were conducted on the above-mentioned peptides by the method of competitive dioxin binding on bead described in Example 2, using a 30% 1,4-dioxane solvent. […] All the four kinds of single residue-substituted peptides were evaluated for dioxin binding capability by the method of competitive dioxin binding on bead.

[2] = method of competitive dioxin binding on bead (2,3,7,8-TeCDD); details: for capability of detecting 2,3,7,8-TeCDD compared with DB2: 30% 1,4-dioxane solvent
Method: as §1
The DB2 peptide was evaluated for affinity to dioxins by the method of competitive dioxin binding on bead. FIGS. 6 (A) and 6 (B) show the results of tests conducted in a solvent containing 30% 1,4-dioxane. The relationship between dioxin concentration and average fluorescence intensity is plotted in FIG. 6 (A). As shown in the figure, declining sigmoid curves, which are characteristic of the competitive binding, were obtained. The curves were fitted using the four-parameter logistic equation, y=(a−d)/(1+(x/c)^b)+d, which is an empirical equation typically employed in competitive ELISA (Eiji Ishikawa, “Enzyme Immunoassay (3rd Edition)”, IGAKU-SHOIN).
(§3) The quenching ratio was calculated using the equation shown below. The beads were evaluated for affinity with the substances detected based on the values of quenching ratios.
(§4) quenching ratio=(fluorescence intensity 1−fluorescence intensity 2)/fluorescence intensity 1×100(%)
The binding constants of the DB2 peptide were calculated using the results of the above equation. Fitting was performed based on the theoretical equation for one-to-one binding of a receptor with a ligand as shown below:
as §2

[3] = secondary screening of peptide beads: fluorescence decrease by competition with 2,3,7-TriCDD; format: binding; details: 1 nM NBD-labeled dichlorophenol, 10 mM phosphate buffer pH 8 with 20% 1,4-dioxane
Source text: A peptide library was constructed by split-and-pool synthesis, one of the typical techniques of combinatorial chemistry, using beads for peptide solid-phase synthesis. According to the present method, a peptide of one kind of sequence is synthesized on a single bead. […] Primary screening involved screening of fluorescently stained peptide beads, using a composite (FIG. 3) obtained by labeling 3,4-dichlorophenol, which has an analogous structure to dioxins, with NBD as a fluorescent material.
About 2.5 million peptide beads were used for screening, the number being equal to the number of combinations of all the sequences of peptides comprising 5 amino acid residues. […] In order to measure the fluorescence intensity, fluorescent microscope images of the peptide beads were recorded with a digital camera (FIG. 4).
The aforementioned washable peptide beads were put into 1 ml of a screening solvent containing 1 nM NBD-labeled dichlorophenol and 10 or 100 nM 2,3,7-trichlorodibenzo-p-dioxin (2,3,7-TriCDD). The mixture was incubated overnight with mild shaking at room temperature, and was then transferred onto a glass petri dish, and fluorescent microscope images thereof were recorded. The obtained images were compared with the images recorded in the previous test so as to screen decreased beads. […]

[4] = method of competitive dioxin binding on bead (2,3,7-TriCDD)
Method: 1 ml of a screening solvent containing 4 nM NBD-labeled dichlorophenol and 0-100 nM of a substance to be detected was prepared in a glass vial, and then three dioxin-binding peptide beads were put into the screening solvent. The resulting mixture was incubated, with mild shaking, overnight at room temperature, and then fluorescent microscope images thereof were recorded. The average fluorescence intensity of each bead was calculated from the recorded images. Calculation of the average fluorescence intensity was performed with an image analysis/measurement software, “Image-Pro Plus” (Planetron, Inc.). When competitive binding of the dichlorophenol with a dioxin occurs, the fluorescence intensity of each bead decreases depending on the concentration of the dioxin. […]
The DB2 peptide was evaluated for affinity to dioxins by the method of competitive dioxin binding on bead. […] The relationship between dioxin concentration and average fluorescence intensity is plotted in FIG. 6 (A). […]
as §3, §4
The binding constants of the DB2 peptide were calculated using the results of the above equation. […]

[5] = 30% 1,4-dioxane, 4 nM NBD-labeled dichlorophenol, 0-100 nM substance
[6] = peptide beads, solvent containing 30% 1,4-dioxane, fit of quenching ratio to one-to-one binding equation

For “Cha Leu Asp Gln Val ([Cha]LDQV) [SEQ ID No. 5]”, the “fluorescence intensity when stained, compared with DB2 peptide” value [1] was “equal to or greater than that of the DB2 peptide” and the “capability of detecting 2,3,7,8-TeCDD compared with DB2” value (“capability … compared with DB2” below) [2] was “equal to or more than that of DB2”.

In the case of “Phe Leu Asp Gln Leu (FLDQL) [SEQ ID No. 23]”, the “fluorescence intensity when stained, compared with DB2 peptide” value [1] is reported as “equal to or greater than that of the DB2 peptide” and the “capability … compared with DB2” value [2] is reported as “equal to or more than that of DB2”.

For “Phe Leu Asp Gln Nva (FLDQ[Nva]) [SEQ ID No. 24]”, the “fluorescence intensity when stained, compared with DB2 peptide” value [1] was “equal to or greater than that of the DB2 peptide” and the “capability … compared with DB2” value [2] was “equal to or more than that of DB2”.

For “Phe Leu Asp Gln Phg (FLDQ[Phg]) [SEQ ID No. 22]”, the “fluorescence intensity when stained, compared with DB2 peptide” value [1] was “equal to or greater than that of the DB2 peptide”, the “2,3,7,8-TeCDD concentration that can be detected” value ([2]; 30% 1,4-dioxane) was 0.15 nM and 0.05 ng/ml and the “capability … compared with DB2” value [2] was “equal to or more than that of DB2”. For the same substance, the “detection sensitivity to 2,3,7,8-TeCDD relative to DB2” value ([2]; 30% dioxane solvent) was “about ten times greater than that of DB2; also recorded: about ten times higher than that of DB2”.

In the case of Phe-Leu-Asp-Gln-Ile (FLDQI) [DB1], the “capability … compared with DB2” value [2] is reported as “equal to or more than that of DB2” and the “quenching by competition with 10 nM 2,3,7-TriCDD” value [3] is reported as “confirmed”.

For Phe-Leu-Asp-Gln-Val (FLDQV) [DB2], the “2,3,7,8-TeCDD concentration that can be detected” value ([2]; 30% 1,4-dioxane) was 1 nM and about 0.3 ng/ml, the “concentration-dependent quenching by 2,3,7,8-TeCDD” value [2, 5] was “Concentration-dependent quenching was observed” and the “affinity (binding constant Ka) for 2,3,7,8-TeCDD” value [2, 6] was 1.7e+09 M⁻¹. The “quenching by competition with 10 nM 2,3,7-TriCDD” value [3] was “confirmed”, the “concentration-dependent quenching by 2,3,7-TriCDD” value [4, 5] was “Concentration-dependent quenching was observed” and the “affinity (binding constant Ka) for 2,3,7-TriCDD” value [4, 6] was 2e+08 M⁻¹.
